Assay results reported in patent US20060111408A1, “Therapeutic benzothiazole compounds” (priority 2000, published 2006).

Key:
human recombinant ERβ = molecular target: T1, human recombinant ERβ (Homo sapiens, UniProt Q92731); experiment: Fluorescence polarization estrogen receptor (ERFP) binding assay, ERβ; conditions: for Ki: fluorescence polarization competition with Fluormone ES2, IC50 converted to Ki by Kenakin formula, read-out: FP β-ER Ki; for FP Selectivity: β-ER over α-ER, from FP Ki values
T1 construct: purchased PanVera (Madison, Wis.)
T1 sequence (Q92731 whole entry): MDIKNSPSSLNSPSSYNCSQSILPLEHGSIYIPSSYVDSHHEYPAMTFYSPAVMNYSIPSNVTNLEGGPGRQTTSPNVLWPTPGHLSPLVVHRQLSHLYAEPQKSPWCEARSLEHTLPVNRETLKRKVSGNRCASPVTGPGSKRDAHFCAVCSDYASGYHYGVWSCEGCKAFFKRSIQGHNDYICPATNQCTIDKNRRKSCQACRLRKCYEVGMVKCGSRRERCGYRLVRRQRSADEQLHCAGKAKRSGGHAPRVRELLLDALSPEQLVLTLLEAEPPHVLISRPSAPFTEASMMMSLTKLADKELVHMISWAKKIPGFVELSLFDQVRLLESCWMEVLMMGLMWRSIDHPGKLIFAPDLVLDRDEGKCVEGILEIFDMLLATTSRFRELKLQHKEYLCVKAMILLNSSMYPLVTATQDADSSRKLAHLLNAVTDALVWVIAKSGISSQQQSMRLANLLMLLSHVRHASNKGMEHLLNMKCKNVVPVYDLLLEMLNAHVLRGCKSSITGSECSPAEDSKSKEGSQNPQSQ
Experimental: (§1) Abbreviated Procedure for Fluorescence Polarization Estrogen Receptor (ERFP) Binding Assay
(§2) A homogeneous mix-and-measure estrogen receptor (ER) binding assay which utilizes fluorescence polarization (FP) technology is used to identify compounds with affinity for the estrogen receptor. Purchased from PanVera (Madison, Wis.), assay reagents include purified human recombinant ERα, human recombinant ERβ, ES2 screening buffer (100 mM potassium phosphate, pH 7.4, 100 μg/mL bovine gamma globulin), and Fluormone™ ES2.
(§3) For competition binding experiments, dilutions of test compounds are prepared at 2× the final assay concentration in 0.2% DMSO in ES2 Screening buffer on TECAN Genosys, and 25 μL compound/well is dispensed into black Costar ½ volume 96-well plates. […] Plates are gently shaken for at least 5 minutes to mix and incubated for at least 1 hr 45 minutes to achieve equilibrium. (Reaction mixtures are stable for up to 5 hours).
(§4) Polarized fluorescence intensity values are collected and subsequently converted electronically to millipolarization (mp) values. Following data reduction and normalization with Excel and/or Prism software, % Ctrl values at the various test concentrations are used to obtain IC50 values via non-linear regression analysis of a four-parameter logistic equation.

αER = molecular target: T2, αER (Homo sapiens, UniProt P03372); experiment: Cell-based assay for ER transcriptional activity (ERE β-gal reporter), αER-transfected 293 cells; conditions: for EC50: 293 cells transfected with αER and ERE β-gal reporter, read-out: ERE α-ER EC50; for ERE α-ER Max: 293 cells transfected with αER, max controls 10 nM beta-estradiol
T2 construct: expressed in transfected cells; host or cells: 293 cells (Human Embryonic Kidney, ATCC CRL-1573); the transfection step says 293T
T2 sequence (P03372 1-595): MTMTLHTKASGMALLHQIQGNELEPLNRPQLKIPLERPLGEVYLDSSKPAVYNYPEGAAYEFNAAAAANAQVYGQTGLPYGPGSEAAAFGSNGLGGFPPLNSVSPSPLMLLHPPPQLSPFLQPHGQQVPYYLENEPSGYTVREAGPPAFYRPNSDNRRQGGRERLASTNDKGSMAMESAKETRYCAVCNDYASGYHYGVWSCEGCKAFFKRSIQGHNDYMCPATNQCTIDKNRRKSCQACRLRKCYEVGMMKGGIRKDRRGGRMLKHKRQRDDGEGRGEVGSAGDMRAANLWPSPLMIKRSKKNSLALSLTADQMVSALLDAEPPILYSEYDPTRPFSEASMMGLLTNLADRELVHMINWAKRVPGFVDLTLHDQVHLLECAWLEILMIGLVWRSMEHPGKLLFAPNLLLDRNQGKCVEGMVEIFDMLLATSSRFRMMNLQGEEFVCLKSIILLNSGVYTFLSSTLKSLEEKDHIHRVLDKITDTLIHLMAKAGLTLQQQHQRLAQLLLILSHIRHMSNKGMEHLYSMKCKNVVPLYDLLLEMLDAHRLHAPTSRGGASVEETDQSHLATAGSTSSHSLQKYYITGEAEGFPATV
Experimental: (§5) Cell-based Assay for ER Transcriptional Activity:
(§6) ERs are ligand-dependent transcription factors that bind the promoter regions of genes at a consensus DNA sequence called the estrogen responsive element (ERE). The ER agonist or antagonist activity of a drug was determined by measuring the amount of reporter enzyme activity expressed from a plasmid under the control of an estrogen-responsive element when cells transiently transfected with ER and the reporter plasmid were exposed to drug. These experiments were conducted according to the following methods.
(§7) Cells are grown in DMEM supplemented with 10% FBS, glutamine, sodium pyruvate and penicillin/streptomycin. Cells are grown to 80% confluency and split 1:10 or 1:20.
(§8) 2. The next day the media is changed, 1 hour prior to transfection, to fresh phenol red-free DMEM 10% FBS (charcoal stripped) and supplements.
(§9) 3. Transfections are performed using the Profection Kit from Promega #El 200, this kit is based on calcium phosphate mediated transfection. Reagents are added in sterile polystyrene tubes in the following order:
(§10) 6. The day after transfection, cells are washed 2× with PBS Ca Mg freePBS containing 1 mM EGTA pH=7.6. […] Trypsin is neutralized with 6 ml DMEM (no phenol red)+10% charcoal stripped FBS. Cells are pelleted at 1000×g for 5 min. Cell pellet is resuspended in 10 ml DMEM (no phenol red)+2% charcoal stripped FBS supplemented with glutamine and Penn/Strep and the cells are counted. Additional medium is added to dilute the cell density to 500,000 cells/ml.
(§11) 7. […] Plates are incubated for approx. 2-4 hours to allow cells to attach.
(§12) 8. Compounds are prepared at concentration of 4 mM in 100% DMSO, then diluted into medium with supplements but no serum. The first 2 dilutions are done in medium with no DMSO, then the remaining dilutions are in medium plus 0.5% DMSO to keep the vehicle constant. Max controls are 10 nM beta-estradiol and background controls are 0.5% DMSO. Compounds are normally tested in the range of 10 uM to 1 nM and are prepared at twice the concentration to be tested. The compounds are added to the cell plates, 50 ul per well. All compounds are tested with an n=4 wells for single poke and n=2 for 9-pt curves.
(§13) 9. Cells are incubated overnight at 37° C. with the compounds.
(§14) 1. After 18-24 hr of stimulation, 100 ul of 7% CPRG cocktail is added to each well, the plate is incubated at 37C for approximately 30 minutes to 2 hours or until the OD reaches between 1.0 and 2.0.
(§15) 2. The plates are read on a spectrophotometric plate reader (Spectramax, Molecular Devices) at 570 nm and raw absorbances are obtained.
(§16) Data is compiled and interpreted with Excel using XLFit or GraphPad Prism to fit concentration-response curves.

human recombinant ERα = molecular target: T3, human recombinant ERα (Homo sapiens, UniProt P03372); experiment: Fluorescence polarization estrogen receptor (ERFP) binding assay, ERα; conditions: fluorescence polarization competition with Fluormone ES2; IC50 converted to Ki by Kenakin formula; read-out: FP α-ER Ki
T3 construct: purchased PanVera (Madison, Wis.)
T3 sequence (P03372 1-595): T2 sequence (P03372 1-595)
Experimental: as §1, §2
as §3, with “hours). After centrifugation to remove air bubbles, plates are read on an LJL Analyst or Acquest equipped with Criterion software at the following settings: Fluorescence Polarization Mode; Static Polarizer on Excitation Side; Dynamic Polarizer on Emission Side; Excitation λ=485+/−10 nm; Emission λ=520+/−12.5 nm.” for “hours).”
as §4
Reference: Bolger et al., Rapid Screening of Environmental Chemicals for Estrogen Receptor Binding Capacity, Environmental Health Pespectives: 106 (1998), 1-7.

βER = molecular target: T4, βER (Homo sapiens, UniProt Q92731); experiment: Cell-based assay for ER transcriptional activity (ERE β-gal reporter), βER-transfected 293 cells; conditions: for EC50: 293 cells transfected with βER and ERE β-gal reporter; for Emax: HEK293, 293 cells transfected with βER, max controls 10 nM beta-estradiol; for ERE Selectivity: β-ER over α-ER, from ERE EC50 values
T4 construct: expressed in transfected cells; host or cells: 293 cells (Human Embryonic Kidney, ATCC CRL-1573); the transfection step says 293T
T4 sequence (Q92731 54-530 limits assumed): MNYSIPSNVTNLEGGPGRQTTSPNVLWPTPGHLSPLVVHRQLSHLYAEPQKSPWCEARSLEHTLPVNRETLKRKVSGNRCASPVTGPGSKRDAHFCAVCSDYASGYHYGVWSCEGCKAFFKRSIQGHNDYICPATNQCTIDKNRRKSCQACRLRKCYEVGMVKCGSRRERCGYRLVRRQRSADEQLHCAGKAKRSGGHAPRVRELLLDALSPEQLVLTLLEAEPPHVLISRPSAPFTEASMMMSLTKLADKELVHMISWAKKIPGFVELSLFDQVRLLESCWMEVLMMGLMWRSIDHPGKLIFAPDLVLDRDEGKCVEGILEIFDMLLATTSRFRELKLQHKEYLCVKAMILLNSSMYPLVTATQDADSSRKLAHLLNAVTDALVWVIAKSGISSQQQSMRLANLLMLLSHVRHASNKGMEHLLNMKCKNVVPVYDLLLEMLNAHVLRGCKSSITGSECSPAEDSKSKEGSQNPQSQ
Experimental: as §5, §6, §7, §8, §9, §10, §11, §12, §13, §14, §15, §16

Ki (human recombinant ERβ)	FP Selectivity (human recombinant ERβ)	EC50 (αER)	ERE α-ER Max (αER)	Ki (human recombinant ERα)	EC50 (βER)	Emax (βER)	ERE Selectivity (βER)	SMILES
1.7 nM	10	61 nM	103%	18 nM	1.2 nM	98%	52	Oc1ccc(-c2nc3c(Cl)cc(O)cc3o2)cc1 [Example 1, 4-Chloro-6-hydroxy-2-(4-hydroxyphenyl)benzoxazole]
1.8 nM	30	76 nM	37%	54 nM	0.5 nM	81%	153	Oc1cc(Br)c2oc(-c3ccc(O)c(Cl)c3)nc2c1 [Example 12, 7-Bromo-2-(3-chloro-4-hydroxy-phenyl)-benzooxazol-5-ol]
148 nM	3	–	–	477 nM	–	–	–	COc1ccc2oc(-c3ccc(O)cc3)nc2c1 [Example 8, 2-(4-hydroxyphenyl)-5-methoxybenzoxazole]
4.8 nM	25	497 nM	102%	121 nM	23 nM	89%	22	Cc1cc(O)cc2oc(-c3ccc(O)cc3)nc12 [Example 3, 6-Hydroxy-2-(4-hydroxyphenyl)-4-methylbenzoxazole]
290 nM	3	–	102%	1000 nM	–	98%	1.8	Oc1ccc(-c2nc3c(O)cc(O)cc3o2)cc1 [Example 5, 4,6-Dihydroxy-2-(4-hydroxyphenyl)benzoxazole]
